Measurements taken from patent publication US20090191253A2 (Creabilis Therapeutics S.P.A., priority 2005, published 2009).

Tests used:
[1] = system: bovine aorta smooth muscle cells (BASMC); experiment: Chemotaxis assay, fMLP-induced migration (modified Boyden chambers); format: cell-based; settings: K-252a 3, 10, 30, 100 nM; fMLP 0.1 μM; overnight migration
Experimental: Chemotaxis assays were performed using a well known and validated protocol (1). Modified Boyden chambers were used with filters having 5-8 μm pore size and treated with collagen I (100 μg/ml in 0.5 M acetic acid) and fibronectin (10 μg/ml, Roche). BASMC (bovine aorta smooth muscle cells) were cultured in serum-free DMEM and a sample of 20,000-40,000 cells was added to the upper well of a Boyden chamber. […] Overnight cell migration was allowed at 37+/−0.5° C., then cells were scraped off and filters were fixed in methanol and stained in a solution of 10% crystal violet in 20% methanol. All experiments were performed at least twice in triplicate. […] Random cell migration, i.e. migration in the absence of chemoattractant, was given the arbitrary value of 100%. Statistical analysis was performed using Student's t test for pairwise comparisons of treatment, or an ANOVA model for the evaluation of treatments with increasing concentrations of a reagent.

HMGB1 = target: T1, HMGB1 (Homo sapiens, UniProt P09429); experiment: Fluorescence assays of K-252a/HMGB1 interaction; format: binding
T1 construct: host or cells: bacteria (inferred from the mention of bacterial contaminants)

LYNb = target: T2, LYNb (Homo sapiens, UniProt P07948); experiment: Kinase inhibition profiling LYNb (ELISA); format: biochemical
T2 construct: made in house; host or cells: baculovirus expression system
Experimental: (§1) Each test compound was weighed and dissolved in DMSO to make 1 mM stock solution. The stock solution was diluted with DMSO to achieve 20 μM. The compound solution was diluted with the assay buffer to achieve 0.8 μM.

Erk2 = target: T3, Erk2 (Homo sapiens, UniProt P28482); experiment: Kinase inhibition profiling Erk2 (IMAP); format: biochemical
T3 construct: Human Erk2 containing 360 amino acids was expressed; His (N); made in house; host or cells: E. coli
Experimental: as §1

CaMK2α = target: T4, CaMK2α (Homo sapiens, UniProt Q9UQM7); experiment: Kinase inhibition profiling CaMK2α (IMAP); format: biochemical
T4 construct: His (N); made in house; host or cells: baculovirus expression system
T4 sequence (Q9UQM7 whole entry): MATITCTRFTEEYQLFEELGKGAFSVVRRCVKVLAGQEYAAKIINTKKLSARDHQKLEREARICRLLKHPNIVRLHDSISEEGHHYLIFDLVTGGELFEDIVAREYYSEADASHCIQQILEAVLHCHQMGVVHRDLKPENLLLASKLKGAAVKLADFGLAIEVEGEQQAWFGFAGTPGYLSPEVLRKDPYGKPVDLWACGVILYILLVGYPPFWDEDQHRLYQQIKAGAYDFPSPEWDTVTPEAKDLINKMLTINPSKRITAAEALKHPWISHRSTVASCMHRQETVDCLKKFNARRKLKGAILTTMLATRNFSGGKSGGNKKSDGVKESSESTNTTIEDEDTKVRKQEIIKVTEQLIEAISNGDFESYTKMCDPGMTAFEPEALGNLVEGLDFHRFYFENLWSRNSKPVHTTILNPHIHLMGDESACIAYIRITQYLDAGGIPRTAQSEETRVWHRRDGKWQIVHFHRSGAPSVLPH
Experimental: (§2) In particular, the target kinases were Tyrosine kinases and Serine/Threonine kinases.
as §1

MAP2K7 = target: T5, MAP2K7 (Homo sapiens, UniProt O14733, S271E/S277E/T275E); experiment: Kinase inhibition profiling MAP2K7 (AlphaScreen, cascade); format: biochemical
T5 construct: T275E, S277E] derived from wild type [419 amino acids; GST (N); made in house; host or cells: E. coli
T5 sequence (O14733 whole entry S271E/T275E/S277E): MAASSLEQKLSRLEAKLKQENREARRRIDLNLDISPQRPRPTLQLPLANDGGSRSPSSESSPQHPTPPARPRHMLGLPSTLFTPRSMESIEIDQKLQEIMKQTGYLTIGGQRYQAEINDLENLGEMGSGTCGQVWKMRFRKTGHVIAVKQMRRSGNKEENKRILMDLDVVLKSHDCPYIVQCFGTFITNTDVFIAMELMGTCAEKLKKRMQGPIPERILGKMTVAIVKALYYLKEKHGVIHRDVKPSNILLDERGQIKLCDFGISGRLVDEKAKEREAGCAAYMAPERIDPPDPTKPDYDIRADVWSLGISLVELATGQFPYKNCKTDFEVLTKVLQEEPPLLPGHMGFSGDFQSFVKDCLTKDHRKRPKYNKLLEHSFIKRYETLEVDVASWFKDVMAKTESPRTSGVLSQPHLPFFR
From the text: AlphaScreen Assay [drawing 4]

JAK1 = target: T6, JAK1 (Homo sapiens, UniProt P23458); experiment: Kinase inhibition profiling JAK1 (ELISA); format: biochemical
T6 construct: Kinase domain (KD) of human JAK1 [838-1142 amino; made in house; host or cells: baculovirus expression system
Experimental: as §1

HER2 = target: T7, HER2 (Homo sapiens, UniProt P04626); experiment: Kinase inhibition profiling HER2 (ELISA); format: biochemical; also: ATP 5 µM
T7 construct: Cytoplasmic domain of human HER2 [676-1255 amino; made in house; host or cells: baculovirus expression system
T7 sequence (P04626 676-1255): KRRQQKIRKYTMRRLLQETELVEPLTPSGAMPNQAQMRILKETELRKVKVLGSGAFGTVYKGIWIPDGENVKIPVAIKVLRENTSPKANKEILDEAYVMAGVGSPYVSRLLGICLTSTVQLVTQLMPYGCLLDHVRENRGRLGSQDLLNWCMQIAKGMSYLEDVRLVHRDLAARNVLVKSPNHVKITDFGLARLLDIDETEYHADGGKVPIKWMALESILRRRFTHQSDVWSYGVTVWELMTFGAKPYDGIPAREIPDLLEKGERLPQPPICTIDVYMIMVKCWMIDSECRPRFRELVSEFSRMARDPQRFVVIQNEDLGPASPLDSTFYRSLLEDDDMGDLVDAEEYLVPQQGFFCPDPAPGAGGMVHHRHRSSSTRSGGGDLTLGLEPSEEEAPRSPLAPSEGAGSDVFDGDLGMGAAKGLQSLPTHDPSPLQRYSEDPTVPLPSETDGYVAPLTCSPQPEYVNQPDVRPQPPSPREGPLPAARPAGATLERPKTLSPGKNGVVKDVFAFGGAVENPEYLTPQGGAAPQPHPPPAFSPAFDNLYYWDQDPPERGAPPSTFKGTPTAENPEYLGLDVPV
Experimental: as §1

p38β = experiment: Kinase inhibition profiling p38β (IMAP); format: biochemical, human; settings: K-252a 200 nM, ATP 10 μM
Experimental: as §1

EphB2 = target: T8, EphB2 (Homo sapiens, UniProt P29323); experiment: Kinase inhibition profiling EphB2 (ELISA); format: biochemical
T8 construct: Cytoplasmic domain of human EphB2 [581-987 amino; made in house; host or cells: baculovirus expression system
T8 sequence (P29323 581-987 isoform P29323-3): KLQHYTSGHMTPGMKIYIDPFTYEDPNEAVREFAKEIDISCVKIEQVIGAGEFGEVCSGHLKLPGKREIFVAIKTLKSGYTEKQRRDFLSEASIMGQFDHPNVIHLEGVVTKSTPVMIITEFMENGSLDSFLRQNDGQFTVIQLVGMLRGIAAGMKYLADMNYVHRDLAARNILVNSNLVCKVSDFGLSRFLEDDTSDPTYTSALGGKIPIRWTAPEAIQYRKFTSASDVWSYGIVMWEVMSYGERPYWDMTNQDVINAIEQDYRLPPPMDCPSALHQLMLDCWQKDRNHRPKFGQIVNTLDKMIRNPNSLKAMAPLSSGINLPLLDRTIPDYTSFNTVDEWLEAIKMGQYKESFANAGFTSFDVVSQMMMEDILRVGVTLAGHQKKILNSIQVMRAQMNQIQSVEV
Experimental: as §1

CHK2 = target: T9, CHK2 (Homo sapiens, UniProt O96017); experiment: Kinase inhibition profiling CHK2 (IMAP); format: biochemical
T9 construct: His (N); made in house; host or cells: baculovirus expression system
T9 sequence (O96017 whole entry): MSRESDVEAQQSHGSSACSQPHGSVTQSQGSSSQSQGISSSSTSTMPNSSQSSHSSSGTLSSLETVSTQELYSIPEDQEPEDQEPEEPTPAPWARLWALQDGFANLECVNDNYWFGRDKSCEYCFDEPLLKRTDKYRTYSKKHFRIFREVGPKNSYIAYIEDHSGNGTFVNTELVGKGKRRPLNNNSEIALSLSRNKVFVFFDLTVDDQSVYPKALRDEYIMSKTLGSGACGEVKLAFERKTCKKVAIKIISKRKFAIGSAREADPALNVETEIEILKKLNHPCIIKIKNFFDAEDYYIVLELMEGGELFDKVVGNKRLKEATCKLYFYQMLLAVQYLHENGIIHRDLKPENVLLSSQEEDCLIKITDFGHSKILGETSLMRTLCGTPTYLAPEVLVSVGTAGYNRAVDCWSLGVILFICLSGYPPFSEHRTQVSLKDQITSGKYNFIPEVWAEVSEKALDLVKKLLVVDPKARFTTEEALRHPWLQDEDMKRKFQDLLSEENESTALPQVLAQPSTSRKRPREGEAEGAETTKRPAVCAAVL
Experimental: as §1

JNK1 = target: T10, JNK1 (Homo sapiens, UniProt P45983); experiment: Kinase inhibition profiling JNK1 (ELISA); format: biochemical
T10 construct: Human JNK1 containing 364 amino acids was expressed; His (C); made in house; host or cells: E. coli
Experimental: as §1

BRK = target: T11, BRK (Homo sapiens, UniProt Q13882); experiment: Kinase inhibition profiling BRK (ELISA); format: biochemical
T11 construct: made in house; host or cells: baculovirus expression system
Experimental: as §2, §1

HCK = target: T12, HCK (Homo sapiens, UniProt P08631); experiment: Kinase inhibition profiling HCK (ELISA); format: biochemical; also: ATP 20 µM
T12 construct: made in house; host or cells: baculovirus expression system
Experimental: as §2, §1

PDGFRα = target: T13, PDGFRα (Homo sapiens, UniProt P16234); experiment: Kinase inhibition profiling PDGFRα (ELISA); format: biochemical
T13 construct: Cytoplasmic domain of human PDGFRα [550-1089; made in house; host or cells: baculovirus expression system
Experimental: as §1

LYNa = target: T14, LYNa (Homo sapiens, UniProt P07948); experiment: Kinase inhibition profiling LYNa (ELISA); format: biochemical
T14 construct: made in house; host or cells: baculovirus expression system
T14 sequence (P07948 whole entry): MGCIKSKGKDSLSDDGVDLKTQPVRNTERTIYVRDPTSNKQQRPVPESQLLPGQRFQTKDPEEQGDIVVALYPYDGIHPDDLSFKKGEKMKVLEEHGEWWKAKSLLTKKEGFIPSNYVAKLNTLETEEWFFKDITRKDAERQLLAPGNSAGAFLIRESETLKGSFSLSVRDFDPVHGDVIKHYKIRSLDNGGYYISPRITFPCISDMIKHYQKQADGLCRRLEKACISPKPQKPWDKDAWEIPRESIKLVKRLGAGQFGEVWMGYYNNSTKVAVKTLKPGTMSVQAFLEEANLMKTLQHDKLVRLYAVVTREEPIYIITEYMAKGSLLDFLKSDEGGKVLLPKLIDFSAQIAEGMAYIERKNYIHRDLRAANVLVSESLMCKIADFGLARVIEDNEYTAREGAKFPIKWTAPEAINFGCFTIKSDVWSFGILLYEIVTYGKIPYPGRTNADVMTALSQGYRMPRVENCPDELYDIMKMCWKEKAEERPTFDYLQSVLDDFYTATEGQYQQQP
Experimental: as §1

FAK = target: T15, FAK (Homo sapiens, UniProt Q05397); experiment: Kinase inhibition profiling FAK (ELISA); format: biochemical
T15 construct: made in house; host or cells: baculovirus expression system
Experimental: as §1

MER = target: T16, MER (Homo sapiens, UniProt Q12866); experiment: Kinase inhibition profiling MER (ELISA); format: biochemical
T16 construct: made in house; host or cells: baculovirus expression system
T16 sequence (Q12866 528-999): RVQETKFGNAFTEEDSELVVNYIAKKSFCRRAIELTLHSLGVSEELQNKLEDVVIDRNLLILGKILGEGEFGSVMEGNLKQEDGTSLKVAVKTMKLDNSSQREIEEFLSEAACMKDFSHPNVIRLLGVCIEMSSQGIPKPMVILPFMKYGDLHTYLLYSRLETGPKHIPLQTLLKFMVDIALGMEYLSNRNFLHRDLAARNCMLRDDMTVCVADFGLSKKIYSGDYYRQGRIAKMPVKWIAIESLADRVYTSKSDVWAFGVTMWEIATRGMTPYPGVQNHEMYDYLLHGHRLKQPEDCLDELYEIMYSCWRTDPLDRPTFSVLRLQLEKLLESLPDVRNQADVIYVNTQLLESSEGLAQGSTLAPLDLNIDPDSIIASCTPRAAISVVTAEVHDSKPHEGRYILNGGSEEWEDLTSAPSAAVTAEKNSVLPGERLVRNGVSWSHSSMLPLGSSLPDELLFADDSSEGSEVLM
Experimental: as §1

CSK = target: T17, CSK (Homo sapiens, UniProt P41240); experiment: Kinase inhibition profiling CSK (ELISA); format: biochemical
T17 construct: His (N, cleaved yes); made in house; host or cells: baculovirus expression system
T17 sequence (P41240 whole entry): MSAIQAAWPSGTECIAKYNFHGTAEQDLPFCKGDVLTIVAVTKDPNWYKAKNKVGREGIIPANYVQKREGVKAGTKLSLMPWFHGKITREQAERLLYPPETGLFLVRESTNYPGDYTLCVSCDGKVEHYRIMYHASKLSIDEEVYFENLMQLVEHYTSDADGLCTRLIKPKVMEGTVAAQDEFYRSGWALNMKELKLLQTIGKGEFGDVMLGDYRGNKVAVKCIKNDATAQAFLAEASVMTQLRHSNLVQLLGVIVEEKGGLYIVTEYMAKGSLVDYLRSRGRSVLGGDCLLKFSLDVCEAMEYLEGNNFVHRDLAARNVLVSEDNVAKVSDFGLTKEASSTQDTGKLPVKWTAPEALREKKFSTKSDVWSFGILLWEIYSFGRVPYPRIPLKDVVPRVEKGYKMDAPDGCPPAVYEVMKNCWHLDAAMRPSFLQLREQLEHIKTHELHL
Experimental: as §1

HER4 = target: T18, HER4 (Homo sapiens, UniProt Q15303); experiment: Kinase inhibition profiling HER4 (ELISA); format: biochemical
T18 construct: Cytoplasmic domain of human HER4 [676-1308 amino; made in house; host or cells: baculovirus expression system
T18 sequence (Q15303 676-1308): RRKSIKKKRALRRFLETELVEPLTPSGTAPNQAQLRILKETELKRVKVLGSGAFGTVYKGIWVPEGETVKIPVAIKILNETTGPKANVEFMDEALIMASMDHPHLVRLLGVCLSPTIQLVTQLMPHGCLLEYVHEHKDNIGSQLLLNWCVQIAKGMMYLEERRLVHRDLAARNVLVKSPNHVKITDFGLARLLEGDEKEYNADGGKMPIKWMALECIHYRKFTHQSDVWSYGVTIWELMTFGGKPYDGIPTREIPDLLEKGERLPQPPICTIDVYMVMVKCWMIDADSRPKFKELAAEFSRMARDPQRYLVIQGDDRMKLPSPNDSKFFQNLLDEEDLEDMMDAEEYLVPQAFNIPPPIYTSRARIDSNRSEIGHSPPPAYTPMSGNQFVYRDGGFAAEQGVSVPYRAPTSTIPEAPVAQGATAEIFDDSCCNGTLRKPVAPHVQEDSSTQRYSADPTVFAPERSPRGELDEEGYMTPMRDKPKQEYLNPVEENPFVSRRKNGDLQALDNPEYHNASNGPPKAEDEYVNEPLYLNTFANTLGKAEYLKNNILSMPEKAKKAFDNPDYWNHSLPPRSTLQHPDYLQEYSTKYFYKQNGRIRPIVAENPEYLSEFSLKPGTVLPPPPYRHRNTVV
Experimental: as §1

INSR = target: T19, INSR (Homo sapiens, UniProt P06213); experiment: Kinase inhibition profiling INSR (ELISA); format: biochemical
T19 construct: Kinase domain (KD) of human INSR [1005-1310 amino; His (N, cleaved yes); made in house; host or cells: baculovirus expression system
T19 sequence (P06213 1005-1310): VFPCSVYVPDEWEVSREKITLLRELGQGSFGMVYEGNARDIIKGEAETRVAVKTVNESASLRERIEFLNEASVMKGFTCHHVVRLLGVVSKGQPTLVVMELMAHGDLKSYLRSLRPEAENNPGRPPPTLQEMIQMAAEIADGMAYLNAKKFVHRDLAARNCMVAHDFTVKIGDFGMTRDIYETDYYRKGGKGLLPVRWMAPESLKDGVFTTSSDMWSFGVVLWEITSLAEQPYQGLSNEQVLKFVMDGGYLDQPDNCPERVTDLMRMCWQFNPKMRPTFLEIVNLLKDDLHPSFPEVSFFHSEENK
Experimental: as §1

RON = target: T20, RON (Homo sapiens, UniProt Q04912); experiment: Kinase inhibition profiling RON (ELISA); format: biochemical
T20 construct: Cytoplasmic domain of human RON [979-1400 amino; made in house; host or cells: baculovirus expression system
Experimental: as §1

FLT1 = target: T21, FLT1 (Homo sapiens, UniProt P17948); experiment: Kinase inhibition profiling FLT1 (ELISA); format: biochemical; also: ATP 20 µM
T21 construct: Cytoplasmic domain of human FLT1 [781-1338 amino; made in house; host or cells: baculovirus expression system
Experimental: as §2, §1

CHK1 = target: T22, CHK1 (Homo sapiens, UniProt O14757); experiment: Kinase inhibition profiling CHK1 (IMAP); format: biochemical
T22 construct: His (N); made in house; host or cells: baculovirus expression system
Experimental: as §1

PDGFRβ = target: T23, PDGFRβ (Homo sapiens, UniProt P09619); experiment: Kinase inhibition profiling PDGFRβ (ELISA); format: biochemical
T23 construct: Cytoplasmic domain of human PDGFRβ [557-1106 amino; made in house; host or cells: baculovirus expression system
Experimental: as §1

EphA2 = target: T24, EphA2 (Homo sapiens, UniProt P29317); experiment: Kinase inhibition profiling EphA2 (ELISA); format: biochemical
T24 construct: made in house; host or cells: baculovirus expression system
Experimental: as §1

Question: How did the “cell migration induced by fMLP” value [1] turn out when `COC(=O)[C@]1(O)CC2O[C@@]1(C)n1c3ccccc3c3c4c(c5c6ccccc6n2c5c31)C(=O)NC4` [K-252a] was run?
Answer: Its value is “does not interfere with cell migration induced by fMLP, whatever the concentration tested”.

Question: What about the “direct interaction between K-252a and HMGB1” value (HMGB1) of the same compound?
Answer: The value was “absence of a direct interaction”.

Question: And the inhibition at 0.2 µM (LYNb)?
Answer: The inhibition at 0.2 µM was 51.2%.

Question: And the inhibition at 0.2 µM (Erk2)?
Answer: The inhibition at 0.2 µM was 14.2%.

Question: And the inhibition at 0.2 µM (CaMK2α)?
Answer: Its inhibition at 0.2 µM is 83.9%.

Question: What about the inhibition at 0.2 µM (MAP2K7) of the same compound?
Answer: The inhibition at 0.2 µM was 68.2%.

Question: And the inhibition at 0.2 µM (JAK1)?
Answer: The inhibition at 0.2 µM was 83.1%.

Question: What about the inhibition at 0.2 µM (HER2) of the same compound?
Answer: The inhibition at 0.2 µM was 7.7%.

Question: What about the “% Inhibition” value (p38β) of the same compound?
Answer: The value was −0.2%.

Question: And the inhibition at 0.2 µM (EphB2)?
Answer: The inhibition at 0.2 µM was 0.4%.

Question: And the inhibition at 0.2 µM (CHK2)?
Answer: Its inhibition at 0.2 µM is 93.9%.

Question: And the inhibition at 0.2 µM (JNK1)?
Answer: Its inhibition at 0.2 µM is 94.3%.

Question: What about the inhibition at 0.2 µM (BRK) of the same compound?
Answer: Its inhibition at 0.2 µM is 35.8%.

Question: What about the inhibition at 0.2 µM (HCK) of the same compound?
Answer: Its inhibition at 0.2 µM is 68.2%.

Question: And the inhibition at 0.2 µM (PDGFRα)?
Answer: Its inhibition at 0.2 µM is 96.1%.

Question: And the inhibition at 0.2 µM (LYNa)?
Answer: Its inhibition at 0.2 µM is 58.9%.

Question: What about the inhibition at 0.2 µM (FAK) of the same compound?
Answer: Its inhibition at 0.2 µM is 53.5%.

Question: And the inhibition at 0.2 µM (MER)?
Answer: The inhibition at 0.2 µM was 80.8%.

Question: What about the inhibition at 0.2 µM (CSK) of the same compound?
Answer: Its inhibition at 0.2 µM is 43%.

Question: What about the inhibition at 0.2 µM (HER4) of the same compound?
Answer: The inhibition at 0.2 µM was 39.4%.

Question: What about the inhibition at 0.2 µM (INSR) of the same compound?
Answer: The inhibition at 0.2 µM was 38%.

Question: And the inhibition at 0.2 µM (RON)?
Answer: The inhibition at 0.2 µM was 5.2%.

Question: And the inhibition at 0.2 µM (FLT1)?
Answer: Its inhibition at 0.2 µM is 73.9%.

Question: And the inhibition at 0.2 µM (CHK1)?
Answer: Its inhibition at 0.2 µM is 92.8%.

Question: What about the inhibition at 0.2 µM (PDGFRβ) of the same compound?
Answer: Its inhibition at 0.2 µM is 98.1%.

Question: What about the inhibition at 0.2 µM (EphA2) of the same compound?
Answer: The inhibition at 0.2 µM was 8.9%.
